Assay results as given in patent publication EP0184291B1, “Polyether antibiotic A80190” (ELI LILLY AND COMPANY, priority 1984, dated 1986).

Key:
[1] = test system: NRRL 15878; test: Resistance to antibiotics, sensitivity discs on seeded ISP No. 2 agar; format: cell-based, Actinomadura oligospora
Experimental: (§1) Resistance to antibiotics was measured by padding antibiotic sensitivity discs onto the surface of seeded ISP No. 2 agar plates.
(§2) Table III lists the resistance of the strain to various antibiotics at the concentrations indicated and compares it to that of A. macra.

[2] = test system: A. macra; test: as above; format: cell-based
Experimental: as §1, §2

[3] = test system: Eimeria acervulina (Lilly strain 59), Eimeria maxima (strain FS-177) and Eimeria tenella (strain FS-155); test: Coccidiosis test in broiler chicks, A80190 with nicarbazin (Test 1); format: in vivo; conditions: A80190 0 p.p.m. in ration

## CC(=O)OCC1=C(C(=O)O)N2C(=O)[C@@H](NC(=O)Cc3cccs3)[C@H]2SC1 [Cephalothin]
[1]; Concentration 30 µg
  Resistance to Antibiotics: +

## CCC[C@@H]1C[C@@H](C(=O)N[C@@H]([C@H]2O[C@H](SC)[C@H](O)[C@@H](O)[C@H]2O)[C@@H](C)O)N(C)C1 [Lincomycin]
[1]; Concentration 2 µg
  Resistance to Antibiotics: +
[2]; Concentration 2 µg
  Resistance to Antibiotics: +

## NC[C@@H]1O[C@H](O[C@H]2[C@@H](O)[C@H](O[C@@H]3[C@@H](O)[C@H](N)C[C@H](N)[C@H]3O[C@H]3O[C@H](CN)[C@@H](O)[C@H](O)[C@H]3N)O[C@@H]2CO)[C@H](N)[C@@H](O)[C@@H]1O [Neomycin]
[1]; Concentration 30 µg
  Resistance to Antibiotics: -
[2]; Concentration 30 µg
  Resistance to Antibiotics: -

## CO[C@H]1C[C@H](O[C@H]2[C@H](C)[C@@H](O[C@@H]3O[C@H](C)C[C@H](N(C)C)[C@H]3O)[C@@H](C)C[C@@]3(CO3)C(=O)[C@H](C)[C@@H](O)[C@@H](C)[C@@H](C)OC(=O)[C@@H]2C)O[C@@H](C)[C@@H]1O [Oleandomycin]
[1]; Concentration 15 µg
  Resistance to Antibiotics: -

## CC1(C)S[C@@H]2[C@H](NC(=O)Cc3ccccc3)C(=O)N2[C@H]1C(=O)O [Pencillin G]
[1]; Concentration 10 units
  Resistance to Antibiotics: +

## CO[C@H]1/C=C/O[C@@]2(C)Oc3c(C)c(O)c4c(O)c(c(/C=N/N5CCN(C)CC5)c(O)c4c3C2=O)NC(=O)/C(C)=C\C=C\[C@H](C)[C@H](O)[C@@H](C)[C@@H](O)[C@@H](C)[C@H](OC(C)=O)[C@@H]1C [Rifampin]
[1]; Concentration 5 µg
  Resistance to Antibiotics: +

## [H]/N=C(/N)N[C@H]1[C@H](O)[C@@H](O)[C@H](O[C@@H]2O[C@@H](C)[C@](O)(C=O)[C@H]2O[C@@H]2O[C@@H](CO)[C@H](O)[C@@H](O)[C@@H]2NC)[C@@H](N/C(N)=N\[H])[C@@H]1O [Streptomycin]
[1]; Concentration 10 µg
  Resistance to Antibiotics: -

## CN(C)[C@@H]1C(O)=C(C(N)=O)C(=O)[C@@]2(O)C(O)=C3C(=O)c4c(O)cccc4[C@@](C)(O)[C@H]3C[C@@H]12 [Tetracycline]
[1]; Concentration 30 µg
  Resistance to Antibiotics: -

## NC[C@H]1O[C@H](O[C@H]2[C@H](O)[C@@H](O[C@H]3O[C@H](CO)[C@@H](O)[C@H](N)[C@H]3O)[C@H](N)C[C@@H]2N)[C@H](N)C[C@@H]1O [Tobramycin]
[1]; Concentration 10 µg
  Resistance to Antibiotics: -
[2]; Concentration 10 µg
  Resistance to Antibiotics: -

## Nicarbazin [reference compound]
[3]; Nicarbazin 20 p.p.m.
  CECAL LESION SCORES: 3.19
  INTESTINAL LESION SCORES: 9.13
  WEIGHT GAIN: 159 grams/per chicken
[3]; Nicarbazin 30 p.p.m.
  CECAL LESION SCORES: 3.50
  INTESTINAL LESION SCORES: 8.88
  WEIGHT GAIN: 174 grams/per chicken
[3]; Nicarbazin 40 p.p.m.
  CECAL LESION SCORES: 3.17
  INTESTINAL LESION SCORES: 8.90
  WEIGHT GAIN: 211 grams/per chicken
[3]; Nicarbazin 50 p.p.m.
  CECAL LESION SCORES: 3.19
  INTESTINAL LESION SCORES: 8.56
  WEIGHT GAIN: 222 grams/per chicken
[3]; Nicarbazin 125 p.p.m.
  CECAL LESION SCORES: 0.33
  INTESTINAL LESION SCORES: 0.08
  WEIGHT GAIN: 279 grams/per chicken
